Experimental data from ChEMBL document CHEMBL1147729, “(+)-(2R,5S)-4-[4-cyano-3-(trifluoromethyl)phenyl]-2,5-dimethyl-N-[6-(trifluoromethyl)pyridin-3-yl]piperazine-1-carboxamide (YM580) as an orally potent and peripherally selective nonsteroidal androgen receptor antagonist” (J Med Chem, 2006).
Activity calls are given as the source filed them. The calls are words filed in the database; no cut-off is given here.

Experiments:
[1] = target: T1, Androgen receptor (Homo sapiens, UniProt P10275)
T1 sequence (P10275 whole entry): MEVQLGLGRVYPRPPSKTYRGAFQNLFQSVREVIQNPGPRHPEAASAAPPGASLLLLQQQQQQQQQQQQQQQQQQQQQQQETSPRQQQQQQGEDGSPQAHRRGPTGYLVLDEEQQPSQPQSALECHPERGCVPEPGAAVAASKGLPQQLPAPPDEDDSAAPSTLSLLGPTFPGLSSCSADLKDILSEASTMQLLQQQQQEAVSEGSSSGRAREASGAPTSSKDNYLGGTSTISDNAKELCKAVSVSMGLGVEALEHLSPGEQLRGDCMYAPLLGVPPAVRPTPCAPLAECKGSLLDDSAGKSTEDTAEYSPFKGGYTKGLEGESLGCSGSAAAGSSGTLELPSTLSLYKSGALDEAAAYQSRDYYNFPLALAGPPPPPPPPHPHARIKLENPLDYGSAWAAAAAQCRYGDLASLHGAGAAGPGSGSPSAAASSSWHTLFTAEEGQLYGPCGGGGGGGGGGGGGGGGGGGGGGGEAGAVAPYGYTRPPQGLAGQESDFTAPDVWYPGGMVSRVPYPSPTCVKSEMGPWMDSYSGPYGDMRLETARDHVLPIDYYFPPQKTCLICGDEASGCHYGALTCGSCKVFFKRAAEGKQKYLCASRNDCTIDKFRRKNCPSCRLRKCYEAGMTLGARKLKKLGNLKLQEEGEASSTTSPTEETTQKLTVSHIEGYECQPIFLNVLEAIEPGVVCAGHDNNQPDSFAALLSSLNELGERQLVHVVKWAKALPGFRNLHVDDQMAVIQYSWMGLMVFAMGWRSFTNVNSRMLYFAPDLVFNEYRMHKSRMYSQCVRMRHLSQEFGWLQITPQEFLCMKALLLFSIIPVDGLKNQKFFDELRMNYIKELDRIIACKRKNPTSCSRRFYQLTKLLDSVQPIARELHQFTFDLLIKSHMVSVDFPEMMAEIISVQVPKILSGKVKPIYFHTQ
Description: Inhibition of AR mediated transcriptional activation using reporter assay

[2] = tested on: Rattus norvegicus; experiment: Effect on ventral prostate weight with reference to control in Wistar rat at 10 mg/kg/day, po; conditions: Prostate gland
[3] = tested on: Rattus norvegicus; experiment: Effect on ventral prostate weight with reference to control in Wistar rat at 10 mg/kg/day, po; assay type: functional, Prostate gland; conditions: for inhibition in vivo at 10 mg/kg/day: Rattus norvegicus, Wistar; for inhibition in vivo at 10 mg/kg/day / inhibition: Prostate gland
[4] = target: T2, Progesterone receptor (Rattus norvegicus, UniProt Q63449); experiment: Inhibition of rat PR
T2 sequence (Q63449 whole entry): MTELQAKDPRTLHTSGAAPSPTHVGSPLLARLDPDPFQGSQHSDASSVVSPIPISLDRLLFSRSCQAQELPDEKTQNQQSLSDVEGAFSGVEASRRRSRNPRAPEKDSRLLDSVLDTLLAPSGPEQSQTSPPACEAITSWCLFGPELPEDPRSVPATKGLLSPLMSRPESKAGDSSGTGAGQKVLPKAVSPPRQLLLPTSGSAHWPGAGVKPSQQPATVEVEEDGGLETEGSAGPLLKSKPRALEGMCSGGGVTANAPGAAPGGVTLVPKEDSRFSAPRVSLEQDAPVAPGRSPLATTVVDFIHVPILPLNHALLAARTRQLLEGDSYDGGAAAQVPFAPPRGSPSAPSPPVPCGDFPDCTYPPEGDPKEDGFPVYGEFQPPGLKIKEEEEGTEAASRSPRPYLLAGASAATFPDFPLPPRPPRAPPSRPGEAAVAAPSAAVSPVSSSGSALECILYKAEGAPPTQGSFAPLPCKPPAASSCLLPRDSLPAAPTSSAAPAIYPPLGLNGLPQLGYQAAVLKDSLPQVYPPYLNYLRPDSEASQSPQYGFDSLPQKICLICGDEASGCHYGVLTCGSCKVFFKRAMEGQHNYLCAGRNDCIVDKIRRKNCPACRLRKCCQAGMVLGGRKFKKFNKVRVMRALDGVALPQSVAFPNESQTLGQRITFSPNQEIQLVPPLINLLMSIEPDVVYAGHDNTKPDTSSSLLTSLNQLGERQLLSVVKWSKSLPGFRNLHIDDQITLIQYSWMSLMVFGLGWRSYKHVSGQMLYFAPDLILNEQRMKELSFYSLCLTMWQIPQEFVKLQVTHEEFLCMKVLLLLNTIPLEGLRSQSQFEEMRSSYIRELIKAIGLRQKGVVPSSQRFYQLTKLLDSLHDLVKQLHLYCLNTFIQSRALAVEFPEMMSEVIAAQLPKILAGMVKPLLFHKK

[5] = target: T3, Glucocorticoid receptor (Homo sapiens, UniProt P04150); experiment: Inhibition of human GR
T3 sequence (P04150 whole entry): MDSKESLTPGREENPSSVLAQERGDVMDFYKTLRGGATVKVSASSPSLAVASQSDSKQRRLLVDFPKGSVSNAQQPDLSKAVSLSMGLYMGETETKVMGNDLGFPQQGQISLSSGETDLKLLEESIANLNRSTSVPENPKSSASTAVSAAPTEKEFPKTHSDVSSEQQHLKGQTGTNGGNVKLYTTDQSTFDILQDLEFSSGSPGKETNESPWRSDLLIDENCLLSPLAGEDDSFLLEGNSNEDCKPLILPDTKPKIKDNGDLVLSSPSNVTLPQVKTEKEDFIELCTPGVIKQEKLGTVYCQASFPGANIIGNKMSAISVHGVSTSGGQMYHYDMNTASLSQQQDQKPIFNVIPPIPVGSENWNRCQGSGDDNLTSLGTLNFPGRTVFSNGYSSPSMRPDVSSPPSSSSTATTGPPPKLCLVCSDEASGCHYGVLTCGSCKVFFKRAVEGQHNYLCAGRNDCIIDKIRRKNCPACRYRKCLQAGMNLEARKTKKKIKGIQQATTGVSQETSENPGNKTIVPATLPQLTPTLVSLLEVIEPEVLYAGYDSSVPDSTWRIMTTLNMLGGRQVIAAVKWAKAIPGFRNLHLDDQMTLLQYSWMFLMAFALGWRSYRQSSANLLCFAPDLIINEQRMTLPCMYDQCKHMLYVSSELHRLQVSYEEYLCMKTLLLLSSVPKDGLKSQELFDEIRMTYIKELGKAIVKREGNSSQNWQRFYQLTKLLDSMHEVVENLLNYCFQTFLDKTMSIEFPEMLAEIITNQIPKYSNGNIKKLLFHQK

[6] = Cmax in rat plasma at 3 mg/kg, po; assay type: ADME, organism-based; parameters: dose 3 mg/kg, route oral
[7] = AUC (0-72)hrs in rat plasma at 3 mg/kg, po; assay type: ADME, organism-based; parameters: time < 72 hr, dose 3 mg/kg, route oral
[8] = Half life in rat plasma at 3 mg/kg, po; assay type: ADME, organism-based; parameters: dose 3 mg/kg, route oral
[9] = Oral clearance in rat at 3 mg/kg, po; assay type: ADME, organism-based; parameters: dose 3 mg/kg, route oral; conditions: in vivo
[10] = Cmax in rat ventral prostate at 3 mg/kg, po; assay type: ADME, organism-based, Prostate gland; parameters: dose 3 mg/kg, route oral
[11] = AUC (0-72)hrs in rat ventral prostate at 3 mg/kg, po; assay type: ADME, organism-based, Prostate gland; parameters: time < 72 hr, dose 3 mg/kg, route oral
[12] = Half life in rat ventral prostate at 3 mg/kg, po; assay type: ADME, organism-based, Prostate gland; parameters: dose 3 mg/kg, route oral
[13] = Oral clearance in rat ventral prostate at 3 mg/kg, po; assay type: ADME, organism-based, Prostate gland; parameters: dose 3 mg/kg, route oral
[14] = Cmax in rat hypothalamus at 3 mg/kg, po; assay type: ADME, organism-based; parameters: dose 3 mg/kg, route oral
[15] = AUC (0-72)hrs in rat hypothalamus at 3 mg/kg, po; assay type: ADME, organism-based; parameters: time < 72 hr, dose 3 mg/kg, route oral
[16] = Half life in rat hypothalamus at 3 mg/kg, po; assay type: ADME, organism-based; parameters: dose 3 mg/kg, route oral
[17] = Oral clearance in rat hypothalamus at 3 mg/kg, po; assay type: ADME, organism-based; parameters: dose 3 mg/kg, route oral
[18] = tested on: Rattus norvegicus; experiment: Effect on ventral prostate weight with reference to control in Wistar rat at 100 mg/kg/day; assay type: ADME, organism-based, Prostate gland; conditions: in vivo

| Structure (SMILES) | IC50 [1] [nM] | inhibition in vivo at 10 mg/kg/day [3] [%] | further results |
| --- | --- | --- | --- |
| C[C@@H]1CN(c2ccc(C#N)c(C(F)(F)F)c2)[C@@H](C)CN1C(=O)Nc1ccc(F)cc1F | 200 |  | inhibition [2]: inactive |
| C[C@@H]1CN(C(=O)Nc2ccc(C(F)(F)F)nc2)[C@@H](C)CN1c1ccc(C#N)c(C(F)(F)F)c1 |  |  | inhibition [2]: inactive |
| Cc1ncccc1NC(=O)N1C[C@H](C)N(c2ccc(C#N)c(C(F)(F)F)c2)C[C@H]1C (racemic) | 680 |  |  |
| C[C@@H]1CN(c2ccc(C#N)c(C(F)(F)F)c2)[C@@H](C)CN1C(=O)Nc1ccncc1 (racemic) |  | 39 |  |
| C[C@@H]1CN(c2ccc(C#N)c(C(F)(F)F)c2)[C@@H](C)CN1C(=O)Nc1ccc(C#N)nc1 (racemic) | 200 | 53 |  |
| CSc1ccc(NC(=O)N2C[C@H](C)N(c3ccc(C#N)c(C(F)(F)F)c3)C[C@H]2C)cn1 (racemic) | 220 | 36 |  |
| COc1ncccc1NC(=O)N1C[C@H](C)N(c2ccc(C#N)c(C(F)(F)F)c2)C[C@H]1C (racemic) | 190 |  | inhibition [2]: inactive |
| C[C@@H]1CN(c2ccc(C#N)c(C(F)(F)F)c2)[C@@H](C)CN1C(=O)Nc1ccc[n+]([O-])c1 (racemic) | > 10000 |  |  |
| C[C@@H]1CN(c2ccc(C#N)c(C(F)(F)F)c2)[C@@H](C)CN1C(=O)Nc1ccccn1 (racemic) | 7800 |  |  |
| Cc1ccc(NC(=O)N2C[C@H](C)N(c3ccc(C#N)c(C(F)(F)F)c3)C[C@H]2C)cn1 (racemic) | 130 | 58 |  |
| COC(=O)c1ccc(NC(=O)N2C[C@H](C)N(c3ccc(C#N)c(C(F)(F)F)c3)C[C@H]2C)cn1 (racemic) | 470 |  | inhibition [3]: inactive |
| Cc1ccncc1NC(=O)N1C[C@H](C)N(c2ccc(C#N)c(C(F)(F)F)c2)C[C@H]1C (racemic) | 330 | 11 |  |
| CC1CN(c2ccc(C#N)c(C(F)(F)F)c2)C(C)CN1C(=O)Nc1ccc(C(F)(F)F)nc1 (racemic) |  | 64 |  |
| C[C@@H]1CN(c2ccc(C#N)c(C(F)(F)F)c2)[C@@H](C)CN1C(=O)Nc1ccc(Cl)nc1 (racemic) | 730 | 52 |  |
| C[C@@H]1CN(c2ccc(C#N)c(C(F)(F)F)c2)[C@@H](C)CN1C(=O)Nc1ccncn1 (racemic) | 4600 |  |  |
| C[C@@H]1CN(c2ccc(C#N)c(C(F)(F)F)c2)[C@@H](C)CN1C(=O)Nc1cncnc1 (racemic) | 1000 |  |  |
| C[C@@H]1CN(c2ccc(C#N)c(C(F)(F)F)c2)[C@@H](C)CN1C(=O)Nc1ncccn1 (racemic) | > 10000 |  |  |
| C[C@@H]1CN(c2ccc(C#N)c(C(F)(F)F)c2)[C@@H](C)CN1C(=O)Nc1ccc(N)nc1 (racemic) | 370 | 39 |  |
| COc1ccc(NC(=O)N2C[C@H](C)N(c3ccc(C#N)c(C(F)(F)F)c3)C[C@H]2C)cn1 (racemic) | 170 | 52 |  |
| CC(=O)c1ccc(NC(=O)N2C[C@H](C)N(c3ccc(C#N)c(C(F)(F)F)c3)C[C@H]2C)cn1 (racemic) | 500 | 43 |  |
| COc1cncc(NC(=O)N2C[C@H](C)N(c3ccc(C#N)c(C(F)(F)F)c3)C[C@H]2C)c1 (racemic) | 440 | 18 |  |
| Cc1cncc(NC(=O)N2C[C@H](C)N(c3ccc(C#N)c(C(F)(F)F)c3)C[C@H]2C)c1 (racemic) | 250 | 11 |  |
| C[C@@H]1CN(c2ccc(C#N)c(C(F)(F)F)c2)[C@@H](C)CN1C(=O)Nc1ccc(O)nc1 (racemic) | > 10000 |  |  |
| C[C@@H]1CN(c2ccc(C#N)c(C(F)(F)F)c2)[C@@H](C)CN1C(=O)Nc1cccnc1 (racemic) | 120 | 42 |  |
| COc1ccncc1NC(=O)N1C[C@H](C)N(c2ccc(C#N)c(C(F)(F)F)c2)C[C@H]1C (racemic) |  |  | inhibition [3]: inactive |
| CC(O)(CS(=O)(=O)c1ccc(F)cc1)C(=O)Nc1ccc(C#N)c(C(F)(F)F)c1 (stereo not given) [BICALUTAMIDE] |  |  | Inhibition [3]: 45%; Ki [4]: 7200 nM; Ki [5]: > 100000 nM; Cmax [6]: 1410 ng/mL; AUC at 72 h [7]: 46900 ng·h/mL; half-life [8]: 22.3 h; CL/F [9]: 0.945 mL/min/kg; Cmax [10]: 1990 ng/mL; AUC at 72 h [11]: 52500 ng·h/mL; half-life [12]: 23.4 h; CL/F [13]: 0.84 mL/min/kg; Cmax [14]: 321 ng/mL; AUC at 72 h [15]: 10600 ng·h/mL; half-life [16]: 27.8 h; CL/F [17]: 3.75 mL/min/kg; Activity [18]: 55% |
